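Tested at 5 concentrations; 48 h exposure; 96-well plates; endpoints linearly interpolated, else capped at highest concentration. Here, GI50 denotes the concentration required for 50% inhibition of growth. The concentration for full growth arrest is given as TGI.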
Key:
Experiment in all cases: NCI-60 cell line screen, 48 h
786-0 renal = system: 786-0 renal
A549 NSCLC = system: A549 NSCLC
ACHN renal = system: ACHN renal
BT-549 breast = system: BT-549 breast
CAKI-1 renal = system: CAKI-1 renal
CCRF-CEM leukemia = system: CCRF-CEM leukemia
COLO 205 colon = system: COLO 205 colon
DU-145 prostate = system: DU-145 prostate
EKVX NSCLC = system: EKVX NSCLC
HCC-2998 colon = system: HCC-2998 colon
HCT-116 colon = system: HCT-116 colon
HCT-15 colon = system: HCT-15 colon
HL-60(TB) leukemia = system: HL-60(TB) leukemia
HOP-62 NSCLC = system: HOP-62 NSCLC
HOP-92 NSCLC = system: HOP-92 NSCLC
HS 578T breast = system: HS 578T breast
HT29 colon = system: HT29 colon
IGROV1 ovarian = system: IGROV1 ovarian
K-562 leukemia = system: K-562 leukemia
KM12 colon = system: KM12 colon
LOX IMVI melanoma = system: LOX IMVI melanoma
M14 melanoma = system: M14 melanoma
MALME-3M melanoma = system: MALME-3M melanoma
MCF7 breast = system: MCF7 breast
MDA-MB-231 breast = system: MDA-MB-231 breast
MDA-MB-435 = system: MDA-MB-435
MDA-MB-468 breast = system: MDA-MB-468 breast
MOLT-4 leukemia = system: MOLT-4 leukemia
NCI-H226 lung = system: NCI-H226 lung
NCI-H23 lung = system: NCI-H23 lung
NCI-H460 lung = system: NCI-H460 lung
NCI-H522 lung = system: NCI-H522 lung
NCI/ADR-RES ovarian = system: NCI/ADR-RES ovarian
OVCAR-3 ovarian = system: OVCAR-3 ovarian
OVCAR-4 ovarian = system: OVCAR-4 ovarian
OVCAR-5 ovarian = system: OVCAR-5 ovarian
OVCAR-8 ovarian = system: OVCAR-8 ovarian
PC-3 prostate = system: PC-3 prostate
RPMI-8226 leukemia = system: RPMI-8226 leukemia
RXF 393 renal = system: RXF 393 renal
SF-268 CNS = system: SF-268 CNS
SF-295 CNS = system: SF-295 CNS
SF-539 CNS = system: SF-539 CNS
SK-MEL-2 melanoma = system: SK-MEL-2 melanoma
SK-MEL-28 melanoma = system: SK-MEL-28 melanoma
SK-MEL-5 melanoma = system: SK-MEL-5 melanoma
SK-OV-3 ovarian = system: SK-OV-3 ovarian
SN12C renal = system: SN12C renal
SNB-19 CNS = system: SNB-19 CNS
SNB-75 CNS = system: SNB-75 CNS
SR leukemia = system: SR leukemia
SW-620 colon = system: SW-620 colon
T-47D breast = system: T-47D breast
TK-10 renal = system: TK-10 renal
U251 CNS = system: U251 CNS
UACC-257 melanoma = system: UACC-257 melanoma
UACC-62 melanoma = system: UACC-62 melanoma
UO-31 renal = system: UO-31 renal

## COc1cc(NC(=O)c2cccc(C3CCc4c(cc(OC)c(OC)c4OC)O3)c2)cc(OC)c1OC (stereo not given)
786-0 renal
  GI50: 4.23 µM
  TGI: > 100 µM
A549 NSCLC
  GI50: 3.91 µM
  TGI: > 100 µM
ACHN renal
  GI50: 3.77 µM
  TGI: > 100 µM
BT-549 breast
  GI50: 1.99 µM
  TGI: 8.22 µM
CAKI-1 renal
  GI50: 2.37 µM
  TGI: > 100 µM
CCRF-CEM leukemia
  GI50: 2.75 µM
  TGI: > 100 µM
COLO 205 colon
  GI50: 2 µM
  TGI: 5.31 µM
DU-145 prostate
  GI50: 3.83 µM
  TGI: > 100 µM
EKVX NSCLC
  GI50: 6.37 µM
  TGI: > 100 µM
HCC-2998 colon
  GI50: 7.64 µM
  TGI: > 100 µM
HCT-116 colon
  GI50: 3.69 µM
  TGI: > 100 µM
HCT-15 colon
  GI50: 2.7 µM
  TGI: > 100 µM
HL-60(TB) leukemia
  GI50: 2.04 µM
  TGI: 5.79 µM
HOP-62 NSCLC
  GI50: 3.51 µM
  TGI: > 100 µM
HOP-92 NSCLC
  GI50: 3.96 µM
  TGI: > 100 µM
HS 578T breast
  GI50: 2.04 µM
  TGI: 6.74 µM
HT29 colon
  GI50: 2.46 µM
  TGI: 6.07 µM
IGROV1 ovarian
  GI50: 4.15 µM
  TGI: > 100 µM
K-562 leukemia
  GI50: 1.75 µM
  TGI: > 100 µM
KM12 colon
  GI50: 3.1 µM
  TGI: > 100 µM
LOX IMVI melanoma
  GI50: 3.62 µM
  TGI: > 100 µM
M14 melanoma
  GI50: 2.53 µM
  TGI: 71 µM
MALME-3M melanoma
  GI50: 2.45 µM
  TGI: > 100 µM
MCF7 breast
  GI50: 2.29 µM
  TGI: > 100 µM
MDA-MB-231 breast
  GI50: 4.12 µM
  TGI: > 100 µM
MDA-MB-435
  GI50: 0.497 µM
  TGI: 3.33 µM
MDA-MB-468 breast
  GI50: 1.24 µM
  TGI: 4.41 µM
MOLT-4 leukemia
  GI50: 2.86 µM
  TGI: 27.5 µM
NCI-H226 lung
  GI50: 2.55 µM
NCI-H23 lung
  GI50: 4.37 µM
  TGI: > 100 µM
NCI-H460 lung
  GI50: 3.24 µM
  TGI: > 100 µM
NCI-H522 lung
  GI50: 1.56 µM
  TGI: 4.63 µM
NCI/ADR-RES ovarian
  GI50: 2.1 µM
  TGI: 6.91 µM
OVCAR-3 ovarian
  GI50: 3.42 µM
  TGI: > 100 µM
OVCAR-4 ovarian
  GI50: 4.49 µM
  TGI: > 100 µM
OVCAR-5 ovarian
  GI50: 5.01 µM
  TGI: > 100 µM
OVCAR-8 ovarian
  GI50: 3.2 µM
  TGI: > 100 µM
PC-3 prostate
  GI50: 2.66 µM
  TGI: > 100 µM
RPMI-8226 leukemia
  GI50: 1.95 µM
  TGI: 12.7 µM
RXF 393 renal
  GI50: 1.59 µM
  TGI: 8.46 µM
SF-268 CNS
  GI50: 3.78 µM
  TGI: > 100 µM
SF-295 CNS
  GI50: 2.46 µM
  TGI: > 100 µM
SF-539 CNS
  GI50: 2.13 µM
  TGI: 5.81 µM
SK-MEL-2 melanoma
  GI50: 2.66 µM
  TGI: > 100 µM
SK-MEL-28 melanoma
  GI50: 4.64 µM
  TGI: > 100 µM
SK-MEL-5 melanoma
  GI50: 1.58 µM
  TGI: 4.52 µM
SK-OV-3 ovarian
  GI50: 3.65 µM
  TGI: > 100 µM
SN12C renal
  GI50: 3.47 µM
  TGI: > 100 µM
SNB-19 CNS
  GI50: 5.94 µM
  TGI: > 100 µM
SNB-75 CNS
  GI50: 2.33 µM
  TGI: 7.99 µM
SR leukemia
  GI50: 0.925 µM
  TGI: 84.9 µM
SW-620 colon
  GI50: 3.52 µM
  TGI: > 100 µM
T-47D breast
  GI50: 2.5 µM
  TGI: 9.29 µM
TK-10 renal
  GI50: 4.32 µM
  TGI: > 100 µM
U251 CNS
  GI50: 3.6 µM
  TGI: > 100 µM
UACC-257 melanoma
  GI50: 3.89 µM
  TGI: > 100 µM
UACC-62 melanoma
  GI50: 1.74 µM
  TGI: 8.33 µM
UO-31 renal
  GI50: 2.59 µM
  TGI: 19.2 µM
